Data on six compounds can be found in patent US6071899A, “Azetidinone derivatives for the treatment of atherosclerosis” (SmithKline Beecham p.l.c., priority 1994, dated 2000).

pIC50: −log10 of the molar value.

As usually defined, the pIC50 is −log10 of the IC50, conventionally taken in molar units.

Assay [1] deals with lyso-PtdCho formation in human LDL. Kind of assay: Inhibition of Cu2+ stimulated lyso-phosphatidylcholine (lyso-PtdCho) formation. Type of assay: biochemical. To be noted: 5 μM Cu2+. On the procedure:
2. Inhibition of Cu 2+stimulated lyso-phosphatidylcholine (lyso-PtdCho) formation.
A 1 ml aliquot of human LDL (0.25 mg protein/ml) was incubated for 15 min at 37° C. with compound or vehicle. 5 μM Cu^2+ was then added to allow oxidation/lyso-PtdCho formation to occur. The incubation was terminated by the addition of 3.75 ml chloroform/methanol/c HCl (200:400:5,v/v/v). Following the addition of 1.25 ml chloroform and 1.25 ml 0.1M HCl, the mixture was vortexed and centrifuged. The lower phase was carefully removed and the upper phase re-extracted with an equal volume of synthetic lower phase. The extracts were pooled and dried under nitrogen.
Phospholipids were reconstituted into 50 μl chloroform/methanol (2:1 v/v). 10 μl aliquots were spotted on to pre-run silica gel HPTLC plates and then developed in chloroform/methanol 25-30% methylamine (60:20:5 v/v/v). Plates were subsequently sprayed with the flourescent indicator, 2-p-toluidinylnaphthalene-6-sulphonic acid (1 mM in 50 mM Tris/HCl, pH 7.4) to identify phospholipid components. Fluorescence was measured at 222 nm using a CAMAG TLC scanner. Lipoprotein lyso-PtdCho content was quantified using a standard curve (0.05-0.5 μg) prepared in parallel.

The next assay deals with T1, Lp-PLA2 (Homo sapiens, UniProt Q13093).
T1 construct: Lp-PLA2 was partially purified by density gradient centrifugation of human plasma; from tissue; host or cells: human plasma (pooled active fractions, partially purified)
T1 sequence (Q13093 22-441): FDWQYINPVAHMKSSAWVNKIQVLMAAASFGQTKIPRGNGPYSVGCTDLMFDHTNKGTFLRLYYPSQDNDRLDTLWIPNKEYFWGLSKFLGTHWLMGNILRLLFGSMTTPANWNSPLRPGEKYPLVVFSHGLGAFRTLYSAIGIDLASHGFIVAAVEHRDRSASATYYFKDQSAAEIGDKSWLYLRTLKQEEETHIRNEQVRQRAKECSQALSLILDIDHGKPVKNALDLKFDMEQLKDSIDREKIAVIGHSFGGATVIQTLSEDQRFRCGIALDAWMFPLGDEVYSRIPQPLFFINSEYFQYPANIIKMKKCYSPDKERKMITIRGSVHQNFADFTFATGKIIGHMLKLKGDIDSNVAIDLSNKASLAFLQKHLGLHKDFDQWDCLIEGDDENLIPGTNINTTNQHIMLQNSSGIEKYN
Kind of assay: Screen for Lp-PLA2 inhibition. Type of assay: biochemical. To be noted: artificial substrate (A) 20 μM, 37° C., pH 7.4, 10 min pre-incubation, 405 nm; enzyme partially purified from human plasma. On the procedure: 1. Screen for Lp-PLA2 inhibition.
Enzyme activity was determined by measuring the rate of turnover of the artificial substrate (A) at 37° C. in 50 mM HEPES (N-2-hydroxyethylpiperazine-N'-2-ethanesulphonic acid) buffer containing 150 mM NaCl, pH 7.4. [drawing 7] Assays were performed in 96 well titre plates.
Lp-PLA2 was partially purified by density gradient centrifugation of human plasma. Active fractions were pooled and used as the source of Lp-PLA2. The enzyme was pre-incubated at 37° C. with vehicle or test compound for 10 min in a total volume of 180 μl. The reaction was then initiated by the addition of 20 μl 10× substrate (A) to give a final substrate concentration of 20 μM. The reaction was followed at 405 nm for 20 minutes using a plate reader with automatic mixing. The rate of reaction was measured as the rate of change of absorbance.

Turning to `C[C@@H]1C(=O)N(CC(=O)NCCCCCCc2ccccc2)[C@H]1[S+](C)[O-]` (relative stereo) [Example 71, trans-N-(6-phenylhexyl)-(3-methyl-4-methylsulphinyl-2-oxoazetidin-1-yl)acetamide], the pIC50 in assay [1] (human LDL 0.25 mg protein/ml, 15 min pre-incubation at 37° C., read-out: IC50 (inhibition of LDL lyso-PtdCho accumulation stimulated by copper ions)) is ~7.22; against Lp-PLA2, 6.40 to 7.52. The “inhibition of LDL lyso-PtdCho accumulation stimulated by copper ions (in words)” value in assay [1] (human LDL) is given as “dose dependently inhibits”. On to `CCCCCC[S+]([O-])C1CC(=O)N1CC(=O)CCc1ccccc1` (single isomer, unassigned) [Example 24, 4-Hexylsulfinyl-1-(4-phenyl-2-oxobutyl)azetidin-2-one], for which the pIC50 at Lp-PLA2 is 6.40 to 7.52. On to `CCCCCC[S+]([O-])C1CC(=O)N1CC(=O)NCCCCCCc1ccccc1` (single isomer, unassigned) [Example 79, N-(6-Phenylhexyl)-(4-n-hexylsulfinyl-2-oxoazetidin-1-yl)acetamide], for which, at Lp-PLA2, the pIC50 is 6.40 to 7.52. Still for that read-out and setting: the result for `CCCC[S+]([O-])C1CC(=O)N1CC(=O)CCc1ccccc1` (centres unmarked) [Example 18, 4-Butylsulfinyl-1-(4-phenyl-2-oxobutyl)azetidin-2-one] reads 6.40 to 7.52; that for `C[S+]([O-])C1CC(=O)N1CC(=O)NCCCCCCc1ccccc1` (centres unmarked) [Example 63, N-6-Phenylbexyl-(4-methylsulphinyl-2-oxoazetidin-1-yl)acetamide], 6.40 to 7.52; that for `C[S+]([O-])C1CC(=O)N1CCCCc1ccccc1` (centres unmarked) [Example 84, 4-Methylsulfinyl-1-(4-phenylbutyl)-azetidin-2-one], 6.40 to 7.52.
